Data reported in US11357752B2, “Carolacton and derivatives thereof for use in the treatment of cell proliferation disorders” (Helmholtz-Zentrum für Infektionsforschung GmbH, priority 2017, dated 2022).
Where “and” joins values, the source holds several entries; their conditions need not be identical. Equal values may be shown once.

Key:
ecFoID = biological target: T1, ecFoID (Escherichia coli, UniProt P24186); assay: FoID dehydrogenase (DH) enzyme assay; format: biochemical, E. coli; conditions: for Ki: carolacton inhibition on DH activity, ecFoID
T1 construct: His-tag (vector pHis-TEV); made in house; host or cells: E. coli BL21 (DE3)
Procedure: (§1) (6R,S)-5,10-Methylene-5,6,7,8-tetrahydrofolic acid ((6R,S)-5,10-CH2-THF), calcium salt and (6R,S)-5,10-Methenyl-5,6,7,8-tetrahydrofolic acid ((6R,S)-5,10-CH=THF) chloride were purchased from Schircks Laboratories (Bauma, Switzerland) and were used as substrates for FoID dehydrogenase and cyclohydrolase enzyme assays, respectively. Only the R-isomer, which accounts for 50% of (6R,S)-5,10-CH2-THF and (6R,S)-5,10-CH=THF, respectively, is used by the enzyme. (6R,S)-5,10-CH2-THF was dissolved in N2-spargeled basic buffer (50 mM Tris-HCl (pH 8.0), 100 mM β-mercaptoethanol) as described by Sah and Varshney, 2015a (6R,S)-5,10-CH=THF was first dissolved in DMSO as a 100 mM stock solution.
(§2) Because FoID is a bifunctional enzyme, dehydrogenase and cyclohydrolase activities were determined for FoID enzyme kinetics, respectively. The dehydrogenase activity of FoID was assayed for its substrate 5,10-CH2-THF and cofactor NADP+ (in the case of MTHFD2, NAD+ was used as cofactor) based on monitoring the formation of 5,10-CH=THF while the cyclohydrolase activity of FoID was determined for its substrate 5,10-CH=THF by monitoring the hydrolysis of 5,10-CH2-THF. The enzyme kinetics for the dehydrogenase activity of all FoIDs except hsMTHFD1_DC were determined at 30° C. in 50 mM Tris-HCl (pH 7.5), 30 mM β-mercaptoethanol. The hsMTHFD1_DC dehydrogenase activity was measured in 25 mM MOPS (pH 7.3), 30 mM β-mercaptoethanol at 30° C. To measure the enzyme kinetics constants for 5,10-CH2-THF, for example in the case of ecFoID, the NADP concentration was fixed at 1 mM and the concentration of 5,10-CH2-THF varied from 5 μM to 1,500 μM (R-isomer). Similarly, to measure the kinetic constants of ecFoID for NADP+, the concentration of 5,10-CH2-THF (R-isomer) was fixed at 1 mM and the concentration of NADP+ varied from 10 μM to 1,500 μM. For different FoIDs, the varied concentration range of substrates could be different. The 50 μL reactions of dehydrogenase assays were initiated by adding appropriate amounts enzyme (4 nM ecFoID, 4 nM spFoID, 15 nM hsMTHFD1_DC, 20 nM hsMTHFD2, 20 nM G8S, 20 nM Q98H, 10 nM K54N, 200 nM ΔK54R55 in the corresponding assays) and terminated with 50 μL 1 M HCl after 2 min incubation at 30° C. To monitor the formation of 5,10-CH=THF, the absorbance of the reaction mixture was monitored at 350 nm in micro UV cuvettes (BRAND, Essex, Connecticut, USA). The concentration of 5,10-CH=THF produced in the reaction was determined using an extinction co-efficient of 0.0249 μM-1 cm-1. Cyclohydrolase activity for each FoID was assayed in the same buffer as dehydrogenase activity at 30° C. but for 30 s. The concentration of FoID used in each assay was 5 nM of ecFoID, spFoID and hsMTHFD1_DC, respectively, and 2 nM of hsMTHFD2. The consumption of 5,10-CH=THF was measured by recording the absorbance of the reactions at 355 nm using the TECAN Infinite 200 PRO equipped with a monochromator. To measure the enzyme kinetic constants, different concentrations of 5,10-CH=THF (varied from […]) were used in […] reaction mixtures. The inhibition constants (Ki) of carolacton on FoID were determined by measuring the apparent Km values when adding certain amounts of carolacton to the enzyme reactions. For ecFoID, 10 nM carolacton was added in the dehydrogenase assay and 50 nM carolacton was used in the cyclohydrolase assay. For spFoID, 25 nM carolacton was added in both dehydrogenase assay and cyclohydrolase assay. For hsMTHFD1_DC, 30 nM carolacton was added in the dehydrogenase assay and 10 nM in the cyclohydrolase assay. […] To compare the inhibition effects of carolacton between the different FoIDs, the half maximal inhibitory concentration (IC50) of carolacton on the same amount of enzyme was determined for FoIDs involved in this study. The enzyme concentration used to determine dehydrogenase activity IC50 was 10 nM, and the enzyme used for cyclohydrolase IC50 measurements was 5 nM. All enzyme kinetics measurements were performed as independent triplicates. […]

ecFoID G8S = biological target: T2, ecFoID G8S (Escherichia coli, UniProt P24186, G8S); assay: FoID dehydrogenase (DH) enzyme assay; format: biochemical, E. coli
T2 construct: made in house; host or cells: E. coli BL21 (DE3)
Procedure: as §1, §2

ecFoID K54N = biological target: T3, ecFoID K54N (Escherichia coli, UniProt P24186, K54N); assay: FoID dehydrogenase (DH) enzyme assay; format: biochemical, E. coli
T3 construct: made in house; host or cells: E. coli BL21 (DE3)
Procedure: as §1, §2

ecFoID Q98H = biological target: T4, ecFoID Q98H (Escherichia coli, UniProt P24186, Q98H); assay: FoID dehydrogenase (DH) enzyme assay; format: biochemical, E. coli
T4 construct: made in house; host or cells: E. coli BL21 (DE3)
Procedure: as §1, §2

ecFoID ΔK54R55 = biological target: T5, ecFoID ΔK54R55 (Escherichia coli, UniProt P24186, DEL54-55); assay: FoID dehydrogenase (DH) enzyme assay; format: biochemical, E. coli
T5 construct: made in house; host or cells: E. coli BL21 (DE3)
Procedure: as §1, §2

spFoID = biological target: T6, spFoID (Streptococcus pneumoniae serotype 4, UniProt Q97RI9); assay: FoID cyclohydrolase (CYH) enzyme assay; format: biochemical, S. pneumoniae
T6 construct: made in house; host or cells: E. coli BL21 (DE3)
Procedure: as §1
Because FoID is a bifunctional enzyme, dehydrogenase and cyclohydrolase activities were determined for FoID enzyme kinetics, respectively. The dehydrogenase activity of FoID was assayed for its substrate 5,10-CH2-THF and cofactor NADP+ (in the case of MTHFD2, NAD+ was used as cofactor) based on monitoring the formation of 5,10-CH=THF while the cyclohydrolase activity of FoID was determined for its substrate 5,10-CH=THF by monitoring the hydrolysis of 5,10-CH2-THF. The enzyme kinetics for the dehydrogenase activity of all FoIDs except hsMTHFD1_DC were determined at 30° C. in 50 mM Tris-HCl (pH 7.5), 30 mM β-mercaptoethanol. The hsMTHFD1_DC dehydrogenase activity was measured in 25 mM MOPS (pH 7.3), 30 mM β-mercaptoethanol at 30° C. […] To monitor the formation of 5,10-CH=THF, the absorbance of the reaction mixture was monitored at 350 nm in micro UV cuvettes (BRAND, Essex, Connecticut, USA). The concentration of 5,10-CH=THF produced in the reaction was determined using an extinction co-efficient of 0.0249 μM-1 cm-1. […] The consumption of 5,10-CH=THF was measured by recording the absorbance of the reactions at 355 nm using the TECAN Infinite 200 PRO equipped with a monochromator. […] The inhibition constants (Ki) of carolacton on FoID were determined by measuring the apparent Km values when adding certain amounts of carolacton to the enzyme reactions. […]

T6 sequence (Q97RI9 whole entry): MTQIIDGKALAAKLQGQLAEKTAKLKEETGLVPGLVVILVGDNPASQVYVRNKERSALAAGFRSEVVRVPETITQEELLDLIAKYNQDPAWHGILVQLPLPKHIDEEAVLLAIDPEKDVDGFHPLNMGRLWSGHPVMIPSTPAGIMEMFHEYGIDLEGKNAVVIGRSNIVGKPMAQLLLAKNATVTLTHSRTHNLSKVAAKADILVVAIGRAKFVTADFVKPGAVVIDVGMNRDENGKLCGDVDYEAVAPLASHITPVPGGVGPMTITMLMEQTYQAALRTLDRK

Q: What does the source list for `CO[C@H](CC(=O)O)[C@@H](C)C(=O)[C@H](C)/C=C(\C)[C@H]1OC(=O)[C@H](O)[C@H](O)/C=C/[C@H](C)CCC[C@@H]1C` [Carolacton, carolacton]?
A: IC50 (ecFoID): 15.5 nM; Ki (ecFoID; Ki (5,10-CH2—THF), vs 5,10-CH2-THF): 21 nM and 21.3 nM; Ki (ecFoID; Ki (NADP^+), vs cofactor NADP+): 11 nM and 10.9 nM; IC50 (ecFoID G8S): 86.5 nM; sensitivity of residual DH activity to carolacton (ecFoID K54N): completely insensitive; IC50 (ecFoID Q98H): 313 nM; sensitivity of residual DH activity to carolacton (ecFoID ΔK54R55): completely insensitive; IC50 (spFoID; 5 nM enzyme, read-out: IC50, carolacton inhibition on CYH activity): 38.1 nM; IC80 (spFoID; 5 nM enzyme, read-out: IC80, carolacton inhibition on CYH activity): 101 nM; Ki (spFoID; vs 5,10-CH=THF, read-out: Ki (5,10-CH═THF), carolacton inhibition on CYH activity): 38.1 nM
